SMILES strings stand for the structures.
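Further: spheroids exposed to compounds for seven days; 100% = DMSO vehicle control viability.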

One test relates to 889142-216-R-J1-PDC complex spheroid viability. Briefly: Anticancer human tumor 889142-216-R-J1-PDC patient-derived bladder carcinoma cell line growth inhibition [POLQ]. Conditions: second compound 0.316 µM; first compound 1 µM; stronger effect = lower value. The method in brief:
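PDC + HUVEC + MSC complex spheroids; POLQ inhibitors ± partner drugs; top conc. at/near clinical Cmax, else 10 microM (SN-38 1 microM), half-log dilutions; 37 degrees C, 5% CO2.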
As a reminder, the viability, T/C is the result in the treated group divided by that in the control group, in per cent. On to `C#Cc1c(F)ccc2cc(O)cc(-c3ncc4c(N5CC6CCC(C5)N6)nc(OCC56CCCN5CC(F)C6)nc4c3F)c12` (stereo unspecified) + Nc1ccc(C#CCN(C(=O)Cc2ncc(C(F)(F)F)cc2C(F)(F)F)c2ccc(F)cc2)nn1, for which the viability, T/C is 116%.

`CCc1cc2c(N3CCc4c(cc(Cn5ccnc5)cc4-c4cn(C)nc4C(F)(F)F)C3=O)cc(C)nc2c(OC)n1` + Nc1ccc(C#CCN(C(=O)Cc2ncc(C(F)(F)F)cc2C(F)(F)F)c2ccc(F)cc2)nn1: the viability, T/C is 135%.

For `O=C(Nc1ccc(O)c(NS(=O)(=O)c2ccc(F)cc2)c1)c1ccc(-c2ccccc2)cc1` + Nc1ccc(C#CCN(C(=O)Cc2ncc(C(F)(F)F)cc2C(F)(F)F)c2ccc(F)cc2)nn1, the viability, T/C is 105%.

The same test, now with this note: second compound 0.316 µM; first compound 3.16 µM; stronger effect = lower value.
As for `C#Cc1c(F)ccc2cc(O)cc(-c3ncc4c(N5CC6CCC(C5)N6)nc(OCC56CCCN5CC(F)C6)nc4c3F)c12` (stereo unspecified) + Nc1ccc(C#CCN(C(=O)Cc2ncc(C(F)(F)F)cc2C(F)(F)F)c2ccc(F)cc2)nn1, the viability, T/C is 69.8%.

Take `CCc1cc2c(N3CCc4c(cc(Cn5ccnc5)cc4-c4cn(C)nc4C(F)(F)F)C3=O)cc(C)nc2c(OC)n1` + Nc1ccc(C#CCN(C(=O)Cc2ncc(C(F)(F)F)cc2C(F)(F)F)c2ccc(F)cc2)nn1: the viability, T/C is 126%.

With `O=C(Nc1ccc(O)c(NS(=O)(=O)c2ccc(F)cc2)c1)c1ccc(-c2ccccc2)cc1` + Nc1ccc(C#CCN(C(=O)Cc2ncc(C(F)(F)F)cc2C(F)(F)F)c2ccc(F)cc2)nn1, the viability, T/C was 134%.

The same test, now with this note: second compound 0.316 µM; first compound 10 µM; stronger effect = lower value.
As for `C#Cc1c(F)ccc2cc(O)cc(-c3ncc4c(N5CC6CCC(C5)N6)nc(OCC56CCCN5CC(F)C6)nc4c3F)c12` (stereo unspecified) + Nc1ccc(C#CCN(C(=O)Cc2ncc(C(F)(F)F)cc2C(F)(F)F)c2ccc(F)cc2)nn1, the viability, T/C is 49.7%.

For the molecule `CCc1cc2c(N3CCc4c(cc(Cn5ccnc5)cc4-c4cn(C)nc4C(F)(F)F)C3=O)cc(C)nc2c(OC)n1` + Nc1ccc(C#CCN(C(=O)Cc2ncc(C(F)(F)F)cc2C(F)(F)F)c2ccc(F)cc2)nn1, the viability, T/C is 75.2%.

Take `O=C(Nc1ccc(O)c(NS(=O)(=O)c2ccc(F)cc2)c1)c1ccc(-c2ccccc2)cc1` + Nc1ccc(C#CCN(C(=O)Cc2ncc(C(F)(F)F)cc2C(F)(F)F)c2ccc(F)cc2)nn1: the viability, T/C is 73%.

The test is the same for the next values; noted with them: second compound 1 µM; first compound 0.0316 µM; stronger effect = lower value.
Turning to `C#Cc1c(F)ccc2cc(O)cc(-c3ncc4c(N5CC6CCC(C5)N6)nc(OCC56CCCN5CC(F)C6)nc4c3F)c12` (stereo unspecified) + Nc1ccc(C#CCN(C(=O)Cc2ncc(C(F)(F)F)cc2C(F)(F)F)c2ccc(F)cc2)nn1, the viability, T/C is 115%.

For the molecule `CCc1cc2c(N3CCc4c(cc(Cn5ccnc5)cc4-c4cn(C)nc4C(F)(F)F)C3=O)cc(C)nc2c(OC)n1` + Nc1ccc(C#CCN(C(=O)Cc2ncc(C(F)(F)F)cc2C(F)(F)F)c2ccc(F)cc2)nn1, the viability, T/C is 125%.

On to `O=C(Nc1ccc(O)c(NS(=O)(=O)c2ccc(F)cc2)c1)c1ccc(-c2ccccc2)cc1` + Nc1ccc(C#CCN(C(=O)Cc2ncc(C(F)(F)F)cc2C(F)(F)F)c2ccc(F)cc2)nn1, for which the viability, T/C was 117%.

Staying with this test, now noted: second compound 1 µM; first compound 0.1 µM; stronger effect = lower value.
`C#Cc1c(F)ccc2cc(O)cc(-c3ncc4c(N5CC6CCC(C5)N6)nc(OCC56CCCN5CC(F)C6)nc4c3F)c12` (stereo unspecified) + Nc1ccc(C#CCN(C(=O)Cc2ncc(C(F)(F)F)cc2C(F)(F)F)c2ccc(F)cc2)nn1: the viability, T/C was 102%.

Consider `CCc1cc2c(N3CCc4c(cc(Cn5ccnc5)cc4-c4cn(C)nc4C(F)(F)F)C3=O)cc(C)nc2c(OC)n1` + Nc1ccc(C#CCN(C(=O)Cc2ncc(C(F)(F)F)cc2C(F)(F)F)c2ccc(F)cc2)nn1, for which the viability, T/C is 116%.

Regarding `O=C(Nc1ccc(O)c(NS(=O)(=O)c2ccc(F)cc2)c1)c1ccc(-c2ccccc2)cc1` + Nc1ccc(C#CCN(C(=O)Cc2ncc(C(F)(F)F)cc2C(F)(F)F)c2ccc(F)cc2)nn1, the viability, T/C is 84.7%.

The same test, now with this note: second compound 1 µM; first compound 0.316 µM; stronger effect = lower value.
As for `C#Cc1c(F)ccc2cc(O)cc(-c3ncc4c(N5CC6CCC(C5)N6)nc(OCC56CCCN5CC(F)C6)nc4c3F)c12` (stereo unspecified) + Nc1ccc(C#CCN(C(=O)Cc2ncc(C(F)(F)F)cc2C(F)(F)F)c2ccc(F)cc2)nn1, the viability, T/C is 95.8%.

`CCc1cc2c(N3CCc4c(cc(Cn5ccnc5)cc4-c4cn(C)nc4C(F)(F)F)C3=O)cc(C)nc2c(OC)n1` + Nc1ccc(C#CCN(C(=O)Cc2ncc(C(F)(F)F)cc2C(F)(F)F)c2ccc(F)cc2)nn1: the viability, T/C was 132%.

Consider `O=C(Nc1ccc(O)c(NS(=O)(=O)c2ccc(F)cc2)c1)c1ccc(-c2ccccc2)cc1` + Nc1ccc(C#CCN(C(=O)Cc2ncc(C(F)(F)F)cc2C(F)(F)F)c2ccc(F)cc2)nn1, for which the viability, T/C was 97.7%.

The same test, now with this note: second compound 1 µM; first compound 1 µM; stronger effect = lower value.
`C#Cc1c(F)ccc2cc(O)cc(-c3ncc4c(N5CC6CCC(C5)N6)nc(OCC56CCCN5CC(F)C6)nc4c3F)c12` (stereo unspecified) + Nc1ccc(C#CCN(C(=O)Cc2ncc(C(F)(F)F)cc2C(F)(F)F)c2ccc(F)cc2)nn1: the viability, T/C was 76.7%.

As for `CCc1cc2c(N3CCc4c(cc(Cn5ccnc5)cc4-c4cn(C)nc4C(F)(F)F)C3=O)cc(C)nc2c(OC)n1` + Nc1ccc(C#CCN(C(=O)Cc2ncc(C(F)(F)F)cc2C(F)(F)F)c2ccc(F)cc2)nn1, the viability, T/C was 135%.

Regarding `O=C(Nc1ccc(O)c(NS(=O)(=O)c2ccc(F)cc2)c1)c1ccc(-c2ccccc2)cc1` + Nc1ccc(C#CCN(C(=O)Cc2ncc(C(F)(F)F)cc2C(F)(F)F)c2ccc(F)cc2)nn1, the viability, T/C was 148%.

The test is the same for the next values; noted with them: second compound 1 µM; first compound 3.16 µM; stronger effect = lower value.
As for `C#Cc1c(F)ccc2cc(O)cc(-c3ncc4c(N5CC6CCC(C5)N6)nc(OCC56CCCN5CC(F)C6)nc4c3F)c12` (stereo unspecified) + Nc1ccc(C#CCN(C(=O)Cc2ncc(C(F)(F)F)cc2C(F)(F)F)c2ccc(F)cc2)nn1, the viability, T/C is 65.3%.

Take `CCc1cc2c(N3CCc4c(cc(Cn5ccnc5)cc4-c4cn(C)nc4C(F)(F)F)C3=O)cc(C)nc2c(OC)n1` + Nc1ccc(C#CCN(C(=O)Cc2ncc(C(F)(F)F)cc2C(F)(F)F)c2ccc(F)cc2)nn1: the viability, T/C was 109%.

Consider `O=C(Nc1ccc(O)c(NS(=O)(=O)c2ccc(F)cc2)c1)c1ccc(-c2ccccc2)cc1` + Nc1ccc(C#CCN(C(=O)Cc2ncc(C(F)(F)F)cc2C(F)(F)F)c2ccc(F)cc2)nn1, for which the viability, T/C is 119%.

Still in this test, the particulars now being: second compound 1 µM; first compound 10 µM; stronger effect = lower value.
Take `C#Cc1c(F)ccc2cc(O)cc(-c3ncc4c(N5CC6CCC(C5)N6)nc(OCC56CCCN5CC(F)C6)nc4c3F)c12` (stereo unspecified) + Nc1ccc(C#CCN(C(=O)Cc2ncc(C(F)(F)F)cc2C(F)(F)F)c2ccc(F)cc2)nn1: the viability, T/C is 52.5%.

`CCc1cc2c(N3CCc4c(cc(Cn5ccnc5)cc4-c4cn(C)nc4C(F)(F)F)C3=O)cc(C)nc2c(OC)n1` + Nc1ccc(C#CCN(C(=O)Cc2ncc(C(F)(F)F)cc2C(F)(F)F)c2ccc(F)cc2)nn1: the viability, T/C is 67.9%.

For `O=C(Nc1ccc(O)c(NS(=O)(=O)c2ccc(F)cc2)c1)c1ccc(-c2ccccc2)cc1` + Nc1ccc(C#CCN(C(=O)Cc2ncc(C(F)(F)F)cc2C(F)(F)F)c2ccc(F)cc2)nn1, the viability, T/C was 78.4%.

Staying with this test, now noted: second compound 3.16 µM; first compound 0.0316 µM; stronger effect = lower value.
With `C#Cc1c(F)ccc2cc(O)cc(-c3ncc4c(N5CC6CCC(C5)N6)nc(OCC56CCCN5CC(F)C6)nc4c3F)c12` (stereo unspecified) + Nc1ccc(C#CCN(C(=O)Cc2ncc(C(F)(F)F)cc2C(F)(F)F)c2ccc(F)cc2)nn1, the viability, T/C is 94%.

For `CCc1cc2c(N3CCc4c(cc(Cn5ccnc5)cc4-c4cn(C)nc4C(F)(F)F)C3=O)cc(C)nc2c(OC)n1` + Nc1ccc(C#CCN(C(=O)Cc2ncc(C(F)(F)F)cc2C(F)(F)F)c2ccc(F)cc2)nn1, the viability, T/C is 109%.

In the case of `O=C(Nc1ccc(O)c(NS(=O)(=O)c2ccc(F)cc2)c1)c1ccc(-c2ccccc2)cc1` + Nc1ccc(C#CCN(C(=O)Cc2ncc(C(F)(F)F)cc2C(F)(F)F)c2ccc(F)cc2)nn1, the viability, T/C was 105%.

Staying with this test, now noted: second compound 3.16 µM; first compound 0.1 µM; stronger effect = lower value.
`C#Cc1c(F)ccc2cc(O)cc(-c3ncc4c(N5CC6CCC(C5)N6)nc(OCC56CCCN5CC(F)C6)nc4c3F)c12` (stereo unspecified) + Nc1ccc(C#CCN(C(=O)Cc2ncc(C(F)(F)F)cc2C(F)(F)F)c2ccc(F)cc2)nn1: the viability, T/C was 98.1%.

Values taken from PubChem BioAssay AID1963831 (Molecular Pharmacology Branch, DTP, NCI, 2024).
